Reference: patent publication US9994515B2, “Aryl naphthyl methanone oxime(s) and process for preparation thereof” (Council of Scientific & Industrial Research, priority 2013, dated 2018)
Where a name gives a salt, the structure may show the parent alone. Read-outs that look alike come from different tables or passages of the source.

Columns and labels:
K562 = assay: MTT cytotoxicity assay in K562 cells; format: cell-based
Ishikawa = assay: MTT assay in Ishikawa endometrial adenocarcinoma cells; format: cell-based; details: Homo sapiens, Ishikawa, Table 6, 48 h, 10 point dose response
HL60 = assay: MTT cytotoxicity assay in HL-60 cells; format: cell-based
DU-145 = assay: MTT assay in DU-145 prostate tumor cells; format: cell-based; details: Homo sapiens, DU-145, Table 6, 48 h, 10 point dose response
NIH3T3 = assay: MTT cytotoxicity assay in NIH3T3 fibroblasts; format: cell-based, mouse
Method: (§1) To consider a molecule as a candidate compound in cancer drug therapy, the test compound must have specific cytotoxicity towards the cancer cells without affecting normal cell growth. Therefore, all active compounds were assessed for toxicity in non-cancer cell-lines: mouse fibroblast cell line (NIH3T3) and monkey kidney epithelial cells (Vero). […] Therefore, based on safety index ([…]), 5d [Centans; based on IUPAC name prefixed with Central Drug Research Institute's signature (Cent)] was selected as a lead compound.

MDA-MB231 = assay: MTT assay in MDA-MB-231 breast tumor cells; format: cell-based; details: Homo sapiens, MDA-MB-231, Table 6, 48 h, 10 point dose response
MCF-7 = assay: MTT assay in MCF-7 breast tumor cells; format: cell-based; details: Homo sapiens, MCF7, Table 6, 48 h, 10 point dose response
U937 = assay: Cytotoxicity in U937 cells; format: cell-based
Vero = assay: Cytotoxicity in Vero kidney epithelial cells; format: cell-based, monkey; details: Primates, Vero; Table 2; normal cell line
Method: as §1

Kasumi 1 = assay: Cytotoxicity in Kasumi 1 cells; format: cell-based
[1] = system: PBMCs isolated from healthy individuals; assay: MTT cytotoxicity in PBMCs from healthy controls; details: 1 μM, 48 h; for % cell death, Average: healthy control, average of C1-C3
[2] = Homo sapiens, K562, 48 h, Table 1, MTT assay after 48 h treatment
[3] = Homo sapiens, HL-60, 48 h, Table 1, MTT assay after 48 h treatment
[4] = Mus musculus, NIH3T3, 48 h, Table 1, MTT assay after 48 h treatment
[5] = Homo sapiens, Kasumi 1, Table 2
[6] = Mus musculus, NIH3T3, Table 2, normal cell line
[7] = Table 1, MTT assay after 48 h treatment, fumarate

SMILES | IC50 (Ishikawa) | IC50 (DU-145) | IC50 (MDA-MB231) | IC50 (MCF-7) | IC50 (K562; [2]) | IC50 (HL60; [3]) | IC50 (NIH3T3; [4]) | other results
COc1ccc(/C(=N/OCCN(C)C)c2cccc3ccccc23)cc1 [Compound 6c, (4-methoxyphenyl)(naphthalen-1-yl)methanone O-2-(dimethylamino)ethyl oxime oxalate] | > 50 µM | > 50 µM | > 50 µM | 15 µM | > 50 µM | > 50 µM | > 50 µM | 
CSc1ccc(/C(=N/OCCN2CCCC2)c2cccc3ccccc23)cc1 [Compound 5b, (4-(methylthio)phenyl)(naphthalen-1-yl)methanone O-2-(pyrrolidin-1-yl)ethyl oxime oxalate] | 6 µM | 9.5 µM | 5.01 µM | 6.6 µM | 25 µM | 19 µM | 20 µM | 
CCN(CC)CCO/N=C(/c1ccc(OC)cc1)c1cccc2ccccc12 [Compound 6d, (4-methoxyphenyl)(naphthalen-1-yl)methanone O-2-(diethylamino)ethyl oxime oxalate] | > 50 µM | > 50 µM | > 50 µM | 20 µM | > 50 µM | > 50 µM | > 50 µM | 
COc1ccc(/C(=N/OCCN2CCCC2)c2cccc3ccccc23)cc1 [Compound 6b, (4-methoxyphenyl)(naphthalen-1-yl)methanone O-2-(pyrrolidin-1-yl)ethyl oxime oxalate] | > 50 µM | > 50 µM | > 50 µM | 25 µM | > 50 µM | > 50 µM | > 50 µM | 
CSc1ccc(/C(=N/OCCCN(C)C)c2cccc3ccccc23)cc1 [Compound 5m, (4-(methylthio)phenyl)(naphthalen-1-yl)methanone O-3-(dimethylamino)propyl oxime oxalate] | 7 µM | 9.5 µM | 7.2 µM | 8 µM | 4.8 µM | 7.78 µM | > 25 µM | IC50 (K562; Homo sapiens, K562, Table 2): 4.8 µM; IC50 (U937; Homo sapiens, U-937, Table 2): > 15 µM; IC50 (Vero): > 25 µM; IC50 (HL60; Homo sapiens, HL-60, Table 2): 7.78 µM; IC50 (Kasumi 1; [5]): > 10 µM; IC50 (NIH3T3; [6]): > 25 µM
COc1ccc(/C(=N/OCCN2CCCCC2)c2cccc3ccccc23)cc1 [Compound 6a, (4-methoxyphenyl)(naphthalen-1-yl)methanone O-2-(piperidin-1-yl)ethyl oxime oxalate] | > 50 µM | > 50 µM | > 50 µM | 18 µM | > 50 µM | > 50 µM | > 50 µM | 
Cc1nc(Nc2ncc(C(=O)Nc3c(C)cccc3Cl)s2)cc(N2CCN(CCO)CC2)n1 [Dasatinib] |  |  |  |  |  |  |  | IC50 (K562; Homo sapiens, K562, 48 h, Table 3, MTT, 48 h, 10 point dose response, read-out: IC 50 K562): 6.8 µM; IC50 (HL60; Homo sapiens, HL-60, 48 h, Table 3, MTT, 48 h, 10 point dose response, read-out: IC 50 HL 60): 6.85 µM; % cell death ([1]; healthy control sample C1): 2.39%; % cell death ([1]; healthy control sample C2): 12.03%; % cell death ([1]; healthy control sample C3): 18.93%; % cell death, Average [1]: 11.12%
CSc1ccc(/C(=N/OCCN2CCCCC2)c2cccc3ccccc23)cc1 [Compound 5a, (4-(methylthio)phenyl)(naphthalen-1-yl)methanone O-2-(piperidin-1-yl)ethyl oxime oxalate] | 10 µM | 10 µM | 8.8 µM | 13.5 µM | 5.8 µM | > 20 µM | 15 µM | IC50 (K562; Homo sapiens, K562, Table 2): 5.8 µM; IC50 (U937; Homo sapiens, U-937, Table 2): > 18 µM; IC50 (Vero): > 25 µM; IC50 (HL60; Homo sapiens, HL-60, Table 2): > 20 µM; IC50 (Kasumi 1; [5]): 27 µM; IC50 (NIH3T3; [6]): 15 µM
CSc1ccc(/C(=N/OCCN2CCOCC2)c2cccc3ccccc23)cc1 [Compound 5f, (4-(methylthio)phenyl)(naphthalen-1-yl)methanone O-2-morpholinoethyl oxime] | > 50 µM | > 50 µM | > 50 µM | > 50 µM | > 25 µM | > 50 µM | 26 µM | 
COc1ccc(/C(=N/OCCCN(C)C)c2cccc3ccccc23)cc1 [Compound 6i, (4-methoxyphenyl)(naphthalen-1-yl)methanone O-3-(dimethylamino)propyl oxime oxalate] | > 50 µM | > 50 µM | > 50 µM | 20.5 µM | > 50 µM | > 50 µM | > 50 µM | 
CSc1ccc(/C(=N/O)c2cccc3ccccc23)cc1 [Compound 4a, (4-(methylthio)phenyl)(naphthalen-1-yl)methanone oxime] | > 50 µM | > 50 µM | 20 µM | 18 µM | > 50 µM | > 50 µM | > 50 µM | melting point: 135 °C
CCN(CC)CCO/N=C(/c1ccc(SC)cc1)c1cccc2ccccc12 [Compound 5j, (4-(methylthio)phenyl)(naphthalen-1-yl)methanone O-2-(diethylamino)ethyl oxime fumarate] |  |  |  |  |  |  |  | IC50 (K562; [7]): 8.5 µM; IC50 (K562; Table 2, fumarate): 8.5 µM; IC50 (U937; Table 2, fumarate): > 24 µM; IC50 (HL60; [7]): 10 µM; IC50 (HL60; Table 2, fumarate): 10 µM; IC50 (Kasumi 1; Table 2, fumarate): 20 µM; IC50 (NIH3T3; [7]): 25 µM; IC50 (NIH3T3; Table 2, normal cell line, fumarate): 25 µM
Cc1ccc(NC(=O)c2ccc(CN3CCN(C)CC3)cc2)cc1Nc1nccc(-c2cccnc2)n1 [Imatinib] |  |  |  |  |  |  |  | % cell death ([1]; healthy control sample C1): 10.51%; % cell death, Average [1]: 16.12%
CSc1ccc(/C(=N/OCCN(C)C)c2cccc3ccccc23)cc1 [Compound 5c, (4-(methylthio)phenyl)(naphthalen-1-yl)methanone O-2-(dimethylamino)ethyl oxime oxalate] | 9 µM | 15 µM | 12.8 µM | 14 µM | > 50 µM | > 50 µM | > 50 µM | 
COc1ccc(/C(=N/OCCN(C(C)C)C(C)C)c2cccc3ccccc23)cc1 [Compound 6e, (4-methoxyphenyl)(naphthalen-1-yl)methanone O-2-(diisopropylamino)ethyl oxime oxalate] | > 50 µM | > 50 µM | > 50 µM | 23 µM | > 50 µM | > 50 µM | > 50 µM | 

The next lines start with results.

IC50 (Ishikawa) | IC50 (DU-145) | IC50 (MDA-MB231) | IC50 (MCF-7) | SMILES | IC50 (K562; [2]) | IC50 (HL60; [3]) | IC50 (NIH3T3; [4]) | other results
18 µM | 7.5 µM | 18 µM | 8 µM | CSc1ccc(/C(=N/OCCCCN2CCCCC2)c2cccc3ccccc23)cc1 [Compound 8a, (4-(methylthio)phenyl)(naphthalen-1-yl)methanone O-4-(piperidin-1-yl)butyl oxime] | 6.34 µM | 16 µM | 20 µM | 
> 50 µM | > 50 µM | > 50 µM | > 50 µM | CSc1ccc(/C(=N/OCCCCN2CCCC2)c2cccc3ccccc23)cc1 [Compound 8b, (4-(methylthio)phenyl)(naphthalen-1-yl)methanone O-4-(pyrrolidin-1-yl)butyl oxime] | > 50 µM | > 50 µM | > 50 µM | 
> 50 µM | > 50 µM | > 50 µM | > 50 µM | CSc1ccc(/C(=N/OCCCN2CCOCC2)c2cccc3ccccc23)cc1 [Compound 7b, (4-(methylthio)phenyl)(naphthalen-1-yl)methanone O-3-morpholinopropyl oxime] | > 50 µM | > 50 µM | > 50 µM | melting point: 89 °C
12 µM | 15 µM | 20 µM | 5 µM | CSc1ccc(/C(=N/OCCCN2CCCCC2)c2cccc3ccccc23)cc1 [Compound 7a, (4-(methylthio)phenyl)(naphthalen-1-yl)methanone O-3-(piperidin-1-yl)propyl oxime oxalate] | > 20 µM | > 50 µM | > 50 µM | 
> 50 µM | 10 µM | 20 µM | 6.5 µM | CSc1ccc(/C(=N/OCCCN2CCC(C)CC2)c2cccc3ccccc23)cc1 [Compound 7c, (4-(methylthio)phenyl)(naphthalen-1-yl)methanone O-3-(4-methylpiperidin-1-yl)propyl oxime oxalate] | 5.73 µM | > 50 µM | 21 µM | IC50 (K562; Homo sapiens, K562, Table 2): 5.73 µM; IC50 (U937; Homo sapiens, U-937, Table 2): > 25 µM; IC50 (Vero): > 25 µM; IC50 (HL60; Homo sapiens, HL-60, Table 2): > 50 µM; IC50 (Kasumi 1; [5]): 19 µM; IC50 (NIH3T3; [6]): 21 µM
